Data: article PMC11861906, “Structural basis for lipid-mediated activation of G protein-coupled receptor GPR55” (Nature Communications, 2025)

What was measured:
Type in all cases: cell-based
[1] = target: GPR55 mutant T176A (Gα13) (Homo sapiens, UniProt Q9Y2T6, T176A); assay: BRET² G protein dissociation assay, GPR55 T176A with Gα13
Excerpt: (§1) To validate the functionality of the GPR55 cryo-EM construct, we conducted bioluminescence resonance energy transfer 2 (BRET²)-based G protein dissociation assays[46],[47] using an engineered heterotrimeric G13 protein. The N-terminal GFP fusion of the receptor was additionally modified with a G67A mutation to disrupt fluorescence properties. We employed human embryonic kidney (HEK) cells overexpressing wt or mutant GPR55 together with Gβ3, Gγ9-GFP, and Gα13 tagged with Renilla luciferase 8 (Rluc8).
(§2) G protein dissociation assays were performed according to the original protocols of the TRUPATH BRET² assay[47],[87] but with subtle modifications as previously described[61],[88],[89]. All reagents and cells were obtained from Thermo Fisher Scientific unless indicated otherwise. The coding sequences for the G protein biosensors[47] (Gα12-Rluc8, Gα13-Rluc8, wt Gβ3, and Gγ9-GFP), the wt GPR55, the construct used for cryo-EM (with GFP bearing a G67A mutation to disrupt fluorescence properties[48] for BRET² assays), GPR55 binding pocket mutants (G152^4.56F, G152^4.56W, N171^ECL2Q, N171^ECL2A, T176^5.33A, R253^6.62A), and the wt TBXA2R were codon-optimized for Homo sapiens, gene-synthesized, and sub-cloned into pcDNA^TM3.1(+) between NheI and HindIII restriction sites by GeneArt (Thermo Fisher Scientific). […] Freshly grown cells were washed with Dulbecco’s Balanced Salt Solution (DPBS, cat. #14200075) and detached using trypsin-ethylenediaminetetraacetic acid (trypsin-EDTA) (cat. #25300-062). Then, the cells were reconstituted to 500,000 cells per mL with fresh medium, and 1,000,000 cells were seeded into each well of a 6-well plate. After 3 h incubation at 37 °C and 5% CO2, adherent cells were transfected with 600 ng DNA (1:1:1:1 ratio of plasmid DNA for GPR55, wt Gβ3, Gγ9-GFP, and Gα12-Rluc8 or Gα13-Rluc8). Plasmid DNA was mixed with 1.5 µL Lipofectamine^TM 2000 (cat. #11668027) in Opti-MEM^TM medium (cat. #31985062) and incubated for 20 min. Then, the mixture was added to each well of the 6-well plate following 24 h incubation at 37 °C and 5% CO2. Transfected cells were washed with DPBS, detached using EDTA (Versene, cat. #15040066), and reconstituted into fresh medium at 500,000 cells mL^−1. From this suspension, 50,000 cells were seeded into each well of a white-bottom 96-well plate (Nunc^TM MicroWell^TM 96 wells, cat. #136101) following overnight incubation at 37 °C and 5% CO2. Then, the adherent cells were washed with assay medium [Hank’s balanced salt solution (HBSS, cat. #14065056) plus 20 mM HEPES pH 7.4 (cat. #15630056)] and finally reconstituted into 50 µL of the same medium. […] Methoxy e-Coelenterazine was used as luciferase substrate (Prolume Purple, NanoLight Technology, cat. #369), reconstituted at 1 mM in methanol and diluted to 37.5 µM with assay buffer (7.5 µM final assay concentration). The assay was started by the addition of 20 µL luciferase substrate to each well of the assay plate using a Multidrop^TM Combi reagent dispenser (Thermo Fisher Scientific), followed by 5 min incubation at room temperature. Then, 30 µL of agonist dilutions or DMSO control was added (final DMSO concentration 1.5%), followed by an additional 5 min incubation at room temperature. BRET² measurements were performed with a PHERAstar® FSX microplate reader (BMG LABTECH) using a BRET² filter (donor emission 370–450 nm, acceptor emission 500–530 nm) at the maximum fluorescence gain of 3600. BRET² ratios were calculated by dividing GFP emission signals from Rluc8 emission counts. Buffer-DMSO controls were subtracted from each data point to calculate ΔBRET² ratios.

[2] = target: GPR55 mutant G152F (Gα13) (Homo sapiens, UniProt Q9Y2T6, G152F); assay: BRET² G protein dissociation assay, GPR55 G152F with Gα13
Chain of GPR55 mutant G152F (Gα13) (Q9Y2T6 whole entry G152F): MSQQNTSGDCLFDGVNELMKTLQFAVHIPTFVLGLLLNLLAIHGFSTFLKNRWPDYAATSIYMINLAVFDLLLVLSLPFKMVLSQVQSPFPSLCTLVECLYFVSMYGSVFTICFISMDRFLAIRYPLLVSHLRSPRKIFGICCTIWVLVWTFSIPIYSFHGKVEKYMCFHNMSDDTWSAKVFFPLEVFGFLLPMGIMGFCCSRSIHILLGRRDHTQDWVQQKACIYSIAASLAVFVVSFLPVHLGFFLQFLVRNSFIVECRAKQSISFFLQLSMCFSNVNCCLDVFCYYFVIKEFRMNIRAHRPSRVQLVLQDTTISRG
Chain of GPR55 mutant G152F (Gα13) (Q14344 whole entry partner): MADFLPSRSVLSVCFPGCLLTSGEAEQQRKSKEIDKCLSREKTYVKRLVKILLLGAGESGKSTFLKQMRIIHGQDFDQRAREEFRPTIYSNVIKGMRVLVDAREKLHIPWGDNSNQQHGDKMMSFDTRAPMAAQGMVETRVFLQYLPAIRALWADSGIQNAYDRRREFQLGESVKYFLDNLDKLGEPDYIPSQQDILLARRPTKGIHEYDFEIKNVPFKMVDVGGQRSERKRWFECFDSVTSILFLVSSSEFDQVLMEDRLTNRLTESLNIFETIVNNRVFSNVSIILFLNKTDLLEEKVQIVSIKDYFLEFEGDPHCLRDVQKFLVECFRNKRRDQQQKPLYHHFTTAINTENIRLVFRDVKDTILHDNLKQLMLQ
Chain of GPR55 mutant G152F (Gα13) (P16520 whole entry partner): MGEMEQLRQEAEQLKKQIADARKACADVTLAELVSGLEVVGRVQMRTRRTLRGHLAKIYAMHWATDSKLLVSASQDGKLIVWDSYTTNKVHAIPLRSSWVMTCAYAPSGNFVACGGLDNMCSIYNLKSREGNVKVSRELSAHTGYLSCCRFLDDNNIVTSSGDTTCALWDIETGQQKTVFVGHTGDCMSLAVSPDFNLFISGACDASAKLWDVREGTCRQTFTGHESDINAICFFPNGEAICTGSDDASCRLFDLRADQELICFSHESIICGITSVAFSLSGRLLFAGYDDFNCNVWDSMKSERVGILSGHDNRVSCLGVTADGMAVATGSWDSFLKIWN
Chain of GPR55 mutant G152F (Gα13) (O14610 1-66 partner limits assumed): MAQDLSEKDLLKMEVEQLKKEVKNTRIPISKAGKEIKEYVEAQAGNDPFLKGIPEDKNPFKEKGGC
Excerpt: as §1, §2

[3] = target: GPR55 mutant R253A (Gα13) (Homo sapiens, UniProt Q9Y2T6, R253A); assay: BRET² G protein dissociation assay, GPR55 R253A with Gα13
Chain of GPR55 mutant R253A (Gα13) (Q9Y2T6 whole entry R253A): as the sequence (Q9Y2T6 whole entry G152F) above, with F152G, R253A counted along it
Chain of GPR55 mutant R253A (Gα13) (Q14344 whole entry partner): as the sequence (Q14344 whole entry partner) above
Chain of GPR55 mutant R253A (Gα13) (P16520 whole entry partner): as the sequence (P16520 whole entry partner) above
Chain of GPR55 mutant R253A (Gα13) (O14610 1-66 partner limits assumed): as the sequence (O14610 1-66 partner limits assumed) above
Excerpt: as §1, §2

Chain of GPR55 mutant T176A (Gα13) (Q9Y2T6 whole entry T176A, the tested form may be a part): as the sequence (Q9Y2T6 whole entry G152F) above, with F152G, T176A counted along it
Chain of GPR55 mutant T176A (Gα13) (Q14344 whole entry partner, the tested form may be a part): as the sequence (Q14344 whole entry partner) above
Chain of GPR55 mutant T176A (Gα13) (P16520 whole entry partner, the tested form may be a part): as the sequence (P16520 whole entry partner) above
Chain of GPR55 mutant T176A (Gα13) (O14610 1-66 partner limits assumed): as the sequence (O14610 1-66 partner limits assumed) above

Cc1cccc(N2CCN(C(=O)c3cc(S(=O)(=O)N(C)C)ccc3N3CCCC3)CC2)c1C [ML184, 3-[[4-(2,3-dimethylphenyl)-1-piperazinyl]carbonyl]-N,N-dimethyl-4-(1-pyrrolidinyl)benzenesulfonamide]
Mean (plotted) BRET² response, GPR55-T176A-G13 ([1]; Concentration 300 pM): 0.001302 | Mean (plotted) BRET² response, GPR55-T176A-G13 ([1]; Concentration 1e-9 M): -0.0007282 | Mean (plotted) BRET² response, GPR55-T176A-G13 ([1]; Concentration 3e-9 M): -0.005903 | Mean (plotted) BRET² response, GPR55-T176A-G13 ([1]; Concentration 1e-8 M): -0.01189 | Mean (plotted) BRET² response, GPR55-T176A-G13 ([1]; Concentration 3e-8 M): -0.02424 | Mean (plotted) BRET² response, GPR55-T176A-G13 ([1]; Concentration 1e-7 M): -0.03886 | Mean (plotted) BRET² response, GPR55-T176A-G13 ([1]; Concentration 3e-7 M): -0.05218 | Mean (plotted) BRET² response, GPR55-T176A-G13 ([1]; Concentration 1e-6 M): -0.06011 | Mean (plotted) BRET² response, GPR55-T176A-G13 ([1]; Concentration 3e-6 M): -0.06604 | Mean (plotted) BRET² response, GPR55-T176A-G13 ([1]; Concentration 1e-5 M): -0.06889 | Mean (plotted) BRET² response, GPR55-T176A-G13 ([1]; Concentration 3e-5 M): -0.07107 | EC50 ([1]; GPR55 T176A, Gα13): 77.6 nM | Emax at 30 µM ([1]; GPR55 T176A, Gα13, 30 µM ligand, same normalization, read-out: Efficacy ± SEM (%)): 100 ± 1% | reduction of potency compared to wt GPR55 ([1]; T176A mutant): 2 fold | Mean (plotted) BRET² response, GPR55-G152F-G13 ([2]; Concentration 300 pM): -0.004043 | Mean (plotted) BRET² response, GPR55-G152F-G13 ([2]; Concentration 1e-9 M): -0.005951 | Mean (plotted) BRET² response, GPR55-G152F-G13 ([2]; Concentration 3e-9 M): -0.01719 | Mean (plotted) BRET² response, GPR55-G152F-G13 ([2]; Concentration 1e-8 M): -0.03259 | Mean (plotted) BRET² response, GPR55-G152F-G13 ([2]; Concentration 3e-8 M): -0.04406 | Mean (plotted) BRET² response, GPR55-G152F-G13 ([2]; Concentration 1e-7 M): -0.05628 | Mean (plotted) BRET² response, GPR55-G152F-G13 ([2]; Concentration 3e-7 M): -0.06251 | Mean (plotted) BRET² response, GPR55-G152F-G13 ([2]; Concentration 1e-6 M): -0.06831 | Mean (plotted) BRET² response, GPR55-G152F-G13 ([2]; Concentration 3e-6 M): -0.07057 | Mean (plotted) BRET² response, GPR55-G152F-G13 ([2]; Concentration 1e-5 M): -0.07761 | Mean (plotted) BRET² response, GPR55-G152F-G13 ([2]; Concentration 3e-5 M): -0.07919 | reduction of potency compared to wt GPR55 ([2]; G152F mutant): remained unchanged | EC50 ([2]; GPR55 G152F, Gα13): 21.9 nM | Emax at 30 µM ([2]; GPR55 G152F, Gα13, 30 µM ligand, same normalization, read-out: Efficacy ± SEM (%)): 108 ± 3% | Mean (plotted) BRET² response, GPR55-R253A-G13 ([3]; Concentration 300 pM): -0.01108 | Mean (plotted) BRET² response, GPR55-R253A-G13 ([3]; Concentration 1e-9 M): -0.01039 | Mean (plotted) BRET² response, GPR55-R253A-G13 ([3]; Concentration 3e-9 M): -0.0289 | Mean (plotted) BRET² response, GPR55-R253A-G13 ([3]; Concentration 1e-8 M): -0.05814 | Mean (plotted) BRET² response, GPR55-R253A-G13 ([3]; Concentration 3e-8 M): -0.08149 | Mean (plotted) BRET² response, GPR55-R253A-G13 ([3]; Concentration 1e-7 M): -0.0987 | Mean (plotted) BRET² response, GPR55-R253A-G13 ([3]; Concentration 3e-7 M): -0.1069 | Mean (plotted) BRET² response, GPR55-R253A-G13 ([3]; Concentration 1e-6 M): -0.1131 | Mean (plotted) BRET² response, GPR55-R253A-G13 ([3]; Concentration 3e-6 M): -0.1166 | Mean (plotted) BRET² response, GPR55-R253A-G13 ([3]; Concentration 1e-5 M): -0.1236 | Mean (plotted) BRET² response, GPR55-R253A-G13 ([3]; Concentration 3e-5 M): -0.1287 | EC50 ([3]; GPR55 R253A, Gα13): 14.5 nM | increase of potency compared to wt GPR55 ([3]; R253A mutant): slightly increased by a factor of three
